Test results taken from the kinase profiling compilation of Christmann-Franck et al. (2016).

Key:
Experiment in all cases: KINOMEscan competition binding
Settings in all cases: compound 10.0 µM
[1] = biological target: ACVR1 (human) (UniProt Q04771)
[2] = biological target: MAP3K5 (human) (UniProt Q99683)
[3] = biological target: ACVR2A (human) (UniProt P27037)
[4] = biological target: RIPK1 (human) (UniProt Q13546)
[5] = biological target: TGFBR2 (human) (UniProt P37173)
[6] = biological target: CSF1R (human) (UniProt P07333)
[7] = biological target: AAK1 (human) (UniProt Q2M2I8)
[8] = biological target: MAP3K4 (human) (UniProt Q9Y6R4)
[9] = biological target: EPHA7 (human) (UniProt Q15375)
[10] = biological target: EPHA2 (human) (UniProt P29317)
[11] = biological target: ULK1 (human) (UniProt O75385)
[12] = biological target: HCK (human) (UniProt P08631)
[13] = biological target: MAP3K7 (human) (UniProt O43318)
[14] = biological target: RPS6KA4 KD1 (human) (UniProt O75676)
RPS6KA4 KD1 (human), sequence (O75676 whole entry, looked up): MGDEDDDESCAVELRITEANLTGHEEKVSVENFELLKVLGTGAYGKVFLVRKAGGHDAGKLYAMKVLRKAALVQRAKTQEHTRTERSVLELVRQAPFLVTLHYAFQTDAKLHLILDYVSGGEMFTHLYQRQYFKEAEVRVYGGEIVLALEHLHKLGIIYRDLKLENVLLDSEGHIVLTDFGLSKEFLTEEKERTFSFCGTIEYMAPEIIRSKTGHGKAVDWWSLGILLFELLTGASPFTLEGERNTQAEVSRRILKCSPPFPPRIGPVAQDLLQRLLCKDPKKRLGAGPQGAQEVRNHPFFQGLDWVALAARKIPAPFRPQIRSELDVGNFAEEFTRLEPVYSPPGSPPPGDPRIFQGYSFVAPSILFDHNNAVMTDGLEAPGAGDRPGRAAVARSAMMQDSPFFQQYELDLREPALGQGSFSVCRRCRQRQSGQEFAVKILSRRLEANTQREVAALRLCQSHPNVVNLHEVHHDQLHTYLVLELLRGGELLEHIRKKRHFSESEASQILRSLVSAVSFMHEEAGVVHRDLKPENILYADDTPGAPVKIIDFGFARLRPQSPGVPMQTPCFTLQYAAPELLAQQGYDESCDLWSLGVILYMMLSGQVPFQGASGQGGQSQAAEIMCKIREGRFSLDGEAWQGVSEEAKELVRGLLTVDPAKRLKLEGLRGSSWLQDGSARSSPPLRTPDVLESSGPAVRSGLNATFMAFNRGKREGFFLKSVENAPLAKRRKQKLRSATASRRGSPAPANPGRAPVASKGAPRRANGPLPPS

[15] = biological target: TLK1 (human) (UniProt Q9UKI8)
TLK1 (human), sequence (Q9UKI8 whole entry, looked up): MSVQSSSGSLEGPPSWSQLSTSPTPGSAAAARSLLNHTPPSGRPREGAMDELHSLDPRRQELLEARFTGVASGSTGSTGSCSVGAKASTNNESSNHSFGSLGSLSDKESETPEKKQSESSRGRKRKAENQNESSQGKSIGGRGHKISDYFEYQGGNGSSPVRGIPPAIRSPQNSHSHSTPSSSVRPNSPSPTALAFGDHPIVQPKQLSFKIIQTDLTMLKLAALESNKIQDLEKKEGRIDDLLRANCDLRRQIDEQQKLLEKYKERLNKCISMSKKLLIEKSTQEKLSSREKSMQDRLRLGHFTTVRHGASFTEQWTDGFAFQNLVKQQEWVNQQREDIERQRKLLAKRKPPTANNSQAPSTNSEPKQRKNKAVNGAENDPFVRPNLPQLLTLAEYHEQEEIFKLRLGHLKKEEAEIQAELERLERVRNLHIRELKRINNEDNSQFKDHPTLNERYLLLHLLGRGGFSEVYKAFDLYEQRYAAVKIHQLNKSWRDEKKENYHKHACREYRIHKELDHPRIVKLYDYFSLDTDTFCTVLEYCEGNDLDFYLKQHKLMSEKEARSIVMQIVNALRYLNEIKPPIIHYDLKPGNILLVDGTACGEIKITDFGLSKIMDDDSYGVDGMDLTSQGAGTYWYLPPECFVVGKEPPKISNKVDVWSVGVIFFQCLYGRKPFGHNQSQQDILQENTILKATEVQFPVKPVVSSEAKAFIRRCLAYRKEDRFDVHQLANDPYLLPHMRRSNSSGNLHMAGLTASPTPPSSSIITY

[16] = biological target: MAPK15 (human) (UniProt Q8TD08)
[17] = biological target: CDK19 (human) (UniProt Q9BWU1)
CDK19 (human), sequence (Q9BWU1 whole entry, looked up): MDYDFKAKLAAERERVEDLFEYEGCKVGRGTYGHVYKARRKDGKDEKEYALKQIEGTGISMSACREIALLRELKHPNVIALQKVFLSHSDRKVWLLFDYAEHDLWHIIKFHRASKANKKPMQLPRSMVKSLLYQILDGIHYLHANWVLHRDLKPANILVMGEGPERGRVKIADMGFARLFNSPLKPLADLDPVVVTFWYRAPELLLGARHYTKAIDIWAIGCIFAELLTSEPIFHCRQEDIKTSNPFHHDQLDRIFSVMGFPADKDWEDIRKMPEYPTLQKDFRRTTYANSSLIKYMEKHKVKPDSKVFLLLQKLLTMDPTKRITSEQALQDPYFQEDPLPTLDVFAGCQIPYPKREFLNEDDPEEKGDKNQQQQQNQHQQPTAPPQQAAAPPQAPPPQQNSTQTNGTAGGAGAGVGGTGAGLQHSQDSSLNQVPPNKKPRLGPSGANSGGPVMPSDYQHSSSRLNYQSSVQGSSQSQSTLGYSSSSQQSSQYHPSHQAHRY

[18] = biological target: EPHA3 (human) (UniProt P29320)
[19] = biological target: STK3 (human) (UniProt Q13188)
[20] = biological target: EPHB2 (human) (UniProt P29323)
[21] = biological target: CAMK2G (human) (UniProt Q13555)
[22] = biological target: IRAK3 (human) (UniProt Q9Y616)
[23] = biological target: RPS6KA4 KD2 (human) (UniProt O75676)
RPS6KA4 KD2 (human), sequence (O75676 whole entry, looked up): as the sequence (O75676 whole entry, looked up) above

[24] = biological target: PTK2B (human) (UniProt Q14289)
[25] = biological target: PTK2 (human) (UniProt Q05397)
[26] = biological target: MAPK6 (human) (UniProt Q16659)
MAPK6 (human), sequence (Q16659 whole entry, looked up): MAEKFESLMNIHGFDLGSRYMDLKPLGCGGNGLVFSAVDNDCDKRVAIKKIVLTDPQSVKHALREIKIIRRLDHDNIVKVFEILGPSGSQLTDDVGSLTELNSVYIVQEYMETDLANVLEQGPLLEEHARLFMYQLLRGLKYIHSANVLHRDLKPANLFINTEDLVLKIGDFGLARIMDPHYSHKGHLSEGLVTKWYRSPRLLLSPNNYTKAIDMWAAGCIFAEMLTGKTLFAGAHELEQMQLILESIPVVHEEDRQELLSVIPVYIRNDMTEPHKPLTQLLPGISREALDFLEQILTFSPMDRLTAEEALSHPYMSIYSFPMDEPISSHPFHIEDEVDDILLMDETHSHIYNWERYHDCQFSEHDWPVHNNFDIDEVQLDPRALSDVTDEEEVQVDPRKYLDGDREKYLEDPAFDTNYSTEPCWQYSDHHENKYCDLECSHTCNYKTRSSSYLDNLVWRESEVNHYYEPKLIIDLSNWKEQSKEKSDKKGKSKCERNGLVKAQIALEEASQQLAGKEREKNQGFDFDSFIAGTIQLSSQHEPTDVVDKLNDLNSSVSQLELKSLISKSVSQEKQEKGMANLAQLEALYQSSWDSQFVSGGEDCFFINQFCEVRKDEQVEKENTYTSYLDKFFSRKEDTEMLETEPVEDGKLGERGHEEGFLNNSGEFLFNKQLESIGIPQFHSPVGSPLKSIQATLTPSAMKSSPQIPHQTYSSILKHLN

[27] = biological target: MAPK12 (human) (UniProt P53778)
[28] = biological target: MAPK13 (human) (UniProt O15264)
MAPK13 (human), sequence (O15264 whole entry, looked up): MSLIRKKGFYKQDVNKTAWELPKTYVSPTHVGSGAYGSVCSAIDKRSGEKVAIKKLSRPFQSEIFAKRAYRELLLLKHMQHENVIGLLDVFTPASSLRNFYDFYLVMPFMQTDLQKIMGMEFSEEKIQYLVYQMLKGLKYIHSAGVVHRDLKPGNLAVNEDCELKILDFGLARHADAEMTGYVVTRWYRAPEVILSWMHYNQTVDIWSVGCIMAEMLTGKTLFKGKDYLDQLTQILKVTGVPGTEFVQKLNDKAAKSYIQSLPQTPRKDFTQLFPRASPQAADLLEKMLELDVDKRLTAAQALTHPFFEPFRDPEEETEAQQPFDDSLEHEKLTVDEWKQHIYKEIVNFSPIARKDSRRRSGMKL

[29] = biological target: IKBKE (human) (UniProt Q14164)
[30] = biological target: CAMK2D (human) (UniProt Q13557)
[31] = biological target: RIOK1 (human) (UniProt Q9BRS2)
[32] = biological target: ZAP70 (human) (UniProt P43403)
[33] = biological target: EPHA6 (human) (UniProt Q9UF33)
[34] = biological target: DDR2 (human) (UniProt Q16832)
[35] = biological target: RPS6KA2 KD2 (human) (UniProt Q15349)
[36] = biological target: TTK (human) (UniProt P33981)
[37] = biological target: PRKCE (human) (UniProt Q02156)
[38] = biological target: PAK1 (human) (UniProt Q13153)
[39] = biological target: PTK6 (human) (UniProt Q13882)
[40] = biological target: EPHB4 (human) (UniProt P54760)
EPHB4 (human), sequence (P54760 whole entry, looked up): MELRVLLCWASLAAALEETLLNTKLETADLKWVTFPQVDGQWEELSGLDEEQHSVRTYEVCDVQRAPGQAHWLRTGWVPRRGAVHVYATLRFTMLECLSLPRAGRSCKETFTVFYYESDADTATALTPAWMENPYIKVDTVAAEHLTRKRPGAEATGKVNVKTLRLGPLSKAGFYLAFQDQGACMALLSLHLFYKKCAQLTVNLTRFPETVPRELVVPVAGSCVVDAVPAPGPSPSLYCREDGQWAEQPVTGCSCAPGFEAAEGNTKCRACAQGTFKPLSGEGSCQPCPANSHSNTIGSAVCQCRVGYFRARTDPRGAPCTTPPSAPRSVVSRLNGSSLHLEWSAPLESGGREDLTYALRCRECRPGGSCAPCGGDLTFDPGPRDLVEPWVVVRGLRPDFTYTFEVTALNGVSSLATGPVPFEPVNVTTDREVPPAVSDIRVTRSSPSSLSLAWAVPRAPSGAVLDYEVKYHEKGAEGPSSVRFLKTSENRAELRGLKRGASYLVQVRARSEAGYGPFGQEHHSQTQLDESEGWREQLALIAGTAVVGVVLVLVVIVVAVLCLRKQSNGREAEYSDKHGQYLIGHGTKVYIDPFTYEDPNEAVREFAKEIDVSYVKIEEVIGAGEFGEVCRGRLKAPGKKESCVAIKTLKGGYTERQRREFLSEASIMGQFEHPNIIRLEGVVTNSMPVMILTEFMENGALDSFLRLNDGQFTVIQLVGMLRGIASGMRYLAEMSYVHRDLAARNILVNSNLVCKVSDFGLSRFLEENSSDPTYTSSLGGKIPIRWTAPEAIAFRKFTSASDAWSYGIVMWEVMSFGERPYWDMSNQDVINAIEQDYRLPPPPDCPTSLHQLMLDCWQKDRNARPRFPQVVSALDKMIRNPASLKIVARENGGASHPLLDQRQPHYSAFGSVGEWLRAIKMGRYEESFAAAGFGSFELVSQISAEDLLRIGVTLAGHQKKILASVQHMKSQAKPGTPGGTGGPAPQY

Measured: kinase still bound, per cent of control

TGFBR2 (human), sequence (P37173 whole entry, looked up): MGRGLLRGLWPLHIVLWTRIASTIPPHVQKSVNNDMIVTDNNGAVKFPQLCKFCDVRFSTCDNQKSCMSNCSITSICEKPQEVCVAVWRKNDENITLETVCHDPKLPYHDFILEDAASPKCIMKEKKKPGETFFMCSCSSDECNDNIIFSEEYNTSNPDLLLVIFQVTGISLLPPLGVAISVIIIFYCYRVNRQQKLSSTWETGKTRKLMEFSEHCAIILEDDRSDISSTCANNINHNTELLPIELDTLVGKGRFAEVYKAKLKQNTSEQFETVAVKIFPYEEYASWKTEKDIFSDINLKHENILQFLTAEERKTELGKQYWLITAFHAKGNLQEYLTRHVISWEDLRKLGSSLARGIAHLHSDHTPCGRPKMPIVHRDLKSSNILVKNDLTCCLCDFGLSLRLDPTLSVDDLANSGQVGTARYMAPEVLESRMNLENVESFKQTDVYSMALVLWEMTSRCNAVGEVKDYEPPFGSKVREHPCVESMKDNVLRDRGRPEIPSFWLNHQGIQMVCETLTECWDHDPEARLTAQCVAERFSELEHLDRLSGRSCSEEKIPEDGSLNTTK

C=CC(=O)Nc1cccc(Oc2nc(Nc3ccc(N4CCN(C)CC4)cc3OC)ncc2Cl)c1
9.4%: [4]
7%: [7]
14%: [6]
28%: [35]
2%: [36]
34%: [22]
16%: [23]
1.6%: [11]
25%: [24]
17%: [31]
0.1%: [25]
100%: all other assays above

COc1cc(C(=O)NC2CCN(C)CC2)ccc1Nc1ncc2c(n1)N(C1CCCC1)CCC(=O)N2C(C)C
100%: all assays above

O=C(NC1CC1)c1cccc(-c2ccc3c(NC(=O)C4CC4)n[nH]c3c2)c1
69%: [22]
92%: [3]
78%: [26]
84%: [30]
5%: [28]
89%: [21]
70%: [6] | [38]
97%: [39]
56%: [13]
42%: [36]
90%: [25] | [32] | [34]
82%: [35]
96%: [9]
93%: [8]
0.05%: [4]
48%: [1]
24%: [27]
98%: [20]
51%: [15]
64%: [18]
79%: [17]
2.9%: [16]
10%: [7] | [31]
100%: all other assays above
